In patent US20130065818A1, “Arylamide Compounds And Compositions And Uses Thereof” (POLYMEDIX, priority 2006, published 2013):
≈ marks a conversion by molar mass, not a printed value. Where two headings read alike, the source gives them in different places.

Test system: S. aureus ATCC 27660
Assay: MIC, control bacteria (Example 8)
Type: cell-based
Procedure: • Mueller-Hinton Broth in tubes was inoculated with 25 ocular isolates of Staphylococcus aureus fluoroquinolone-susceptible, Staphylococcus aureus fluoroquinolone-resistant, Staphylococcus epidermidis (Coagulase-negative Staphylococcus) fluoroquinolone-susceptible, Staphylococcus epidermidis (Coagulase-negative Staphylococcus) fluoroquinolone-resistant, Pseudomonas aeruginosa and Serratia marcescens, plus two controls (Staphylococcus aureus and E. coli) and incubated at 37° C. overnight on a shaker set at 250 rpm.
Control Bacteria—The two control bacteria (Staphylococcus aureus and E. coli) were treated as above.
Control Bacteria Set #1—this set of control bacteria were treated as the Streptococcus pneumoniae, Streptococcus viridans and Moraxella species (including Moraxella catarrhalis) test isolates above; the control bacteria underwent the same conditions as the test Streptococcus pneumoniae, Streptococcus viridans and Moraxella species (including Moraxella catarrhalis) isolates. This set of control bacteria was to determine whether there was a difference in the MICs by performing the MIC determinations in 2% lysed horse red blood cells with the standard method performed in Mueller-Hinton broth.
Control Bacteria Set #2—the control bacteria were added to 5 ml of Mueller-Hinton Broth without the 2% lysed horse red blood cells to achieve the standard inoculum concentration. This set of control bacteria is the normal control to determine whether the compounds are at the target MICs.
Control Bacteria Set #1—this set of control bacteria were treated as the Haemophilus influenzae test isolates above; the control bacteria underwent the same conditions as the test Haemophilus influenzae isolates. This set of control bacteria is to determine whether there was a difference in the MICs by performing the MIC determinations in HTM broth with the standard method performed in Mueller-Hinton broth.
Control Bacteria Set #2—the control bacteria were added to 5 ml of Mueller-Hinton Broth to achieve the standard inoculum concentration. This set of control bacteria is the normal control to determine whether the compounds are at the target MICs.
Ninety μl of the bacterial suspensions was dispensed in each well from column 1 to column 12. Each bacterial isolate was placed in one row of a 96 well polypropylene plate containing the test agents. The plates were placed on shaker at 15 minutes at room temperature, and then incubated at 37° C. overnight. MICs were determined visually as the lowest concentration of drug that inhibits visible bacterial growth.

[1] = Control Bacteria S. aureus ATCC 27660

With `N=C(N)NCCCCC(=O)Nc1cc(C(F)(F)F)cc(NC(=O)c2cc(C(=O)Nc3cc(C(F)(F)F)cc(NC(=O)CCCCNC(=N)N)c3O[C@@H]3CCNC3)ncn2)c1O[C@@H]1CCNC1` [Oligomer 4] the “Decrease of activity by addition of 2% lysed horse red blood cells to Mueller-Hinton broth” value [1] was “approximately 4 fold”, the “Decrease of activity by use of HTM broth” value [1] was “approximately 8 fold” and the MIC (Control Bacteria Set #1, run with Haemophilus influenzae MIC test, read-out: MIC) was 4 µg/mL (≈ 4.27 µM). For the same compound, the MIC (S. aureus ATCC 27660) was 0.098 µg/mL (≈ 0.105 µM), the MIC (S. aureus ATCC 27660, Control for MIC Test SA-FQR, first batch) was 1 µg/mL (≈ 1.07 µM) and the MIC (S. aureus ATCC 27660, Control for MIC Test SA-FQS, first batch) was 2 µg/mL (≈ 2.13 µM). It also gave an MIC (S. aureus ATCC 27660, new batches, Control Only 1) of 0.25 µg/mL (≈ 0.267 µM), an MIC (S. aureus ATCC 27660, new batches, Control Only 2) of 0.25 µg/mL (≈ 0.267 µM) and an MIC (S. aureus ATCC 27660, new batches, Control Only 3) of 0.25 µg/mL (≈ 0.267 µM). The MIC (S. aureus ATCC 27660, new batches, Control Only 4) was 0.5 µg/mL (≈ 0.534 µM), the MIC (Staphylococcus aureus, ATCC27660, Control Bacteria Set #1, run with Moraxella MIC test, read-out: MIC) was 1 µg/mL (≈ 1.07 µM) and the MIC (Staphylococcus aureus, ATCC27660, Control Only 1, read-out: MIC of control bacteria on day of MIC testing) was 0.25 µg/mL. It also gave an MIC (Staphylococcus aureus, ATCC27660, Control Only 2, read-out: MIC of control bacteria on day of MIC testing) of 0.25 µg/mL, an MIC (Staphylococcus aureus, ATCC27660, Control Only 3, read-out: MIC of control bacteria on day of MIC testing) of 0.25 µg/mL and an MIC (Staphylococcus aureus, ATCC27660, Control Only 4, read-out: MIC of control bacteria on day of MIC testing) of 0.5 µg/mL. It also gave an MIC (Staphylococcus aureus, ATCC27660, S. aureus ATCC 27660, Control Bacteria Set #1 (same conditions as test isolates), run with Streptococcus pneumoniae MIC test, read-out: MIC) of 1 µg/mL (≈ 1.07 µM), an MIC (Staphylococcus aureus, ATCC27660, S. aureus ATCC 27660, Control Bacteria Set #1 (same conditions as test isolates), run with Streptococcus viridans group MIC test, read-out: MIC) of 2 µg/mL (≈ 2.13 µM) and an MIC (Staphylococcus aureus, ATCC27660, S. aureus ATCC 27660, Control Bacteria Set #2 (Mueller-Hinton Broth), run with Streptococcus pneumoniae MIC test, read-out: MIC) of 0.25 µg/mL (≈ 0.267 µM). The MIC (Staphylococcus aureus, ATCC27660, S. aureus ATCC 27660, Control Bacteria Set #2 (Mueller-Hinton Broth), run with Streptococcus viridans group MIC test, read-out: MIC) was 1 µg/mL (≈ 1.07 µM), the MIC (Staphylococcus aureus, ATCC27660, S. aureus ATCC 27660, control bacteria run with Pseudomonas aeruginosa MIC test, read-out: MIC) was 0.5 µg/mL (≈ 0.534 µM) and the MIC (Staphylococcus aureus, ATCC27660, S. aureus ATCC 27660, control bacteria run with S. aureus fluoroquinolone-resistant MIC test, read-out: MIC) was 1 µg/mL (≈ 1.07 µM). For the same compound, the MIC (Staphylococcus aureus, ATCC27660, S. aureus ATCC 27660, control bacteria run with S. aureus fluoroquinolone-susceptible MIC test, read-out: MIC) was 2 µg/mL (≈ 2.13 µM), the MIC (Staphylococcus aureus, ATCC27660, S. aureus ATCC 27660, control bacteria run with S. epidermidis fluoroquinolone-resistant MIC test, read-out: MIC) was 0.25 µg/mL (≈ 0.267 µM) and the MIC (Staphylococcus aureus, ATCC27660, S. aureus ATCC 27660, control bacteria run with S. epidermidis fluoroquinolone-susceptible MIC test, read-out: MIC) was 0.25 µg/mL (≈ 0.267 µM). It also gave an MIC (Staphylococcus aureus, ATCC27660, S. aureus ATCC 27660, control bacteria run with Serratia marcescens MIC test, read-out: MIC) of 0.25 µg/mL (≈ 0.267 µM), an MIC (Staphylococcus aureus, ATCC27660, S. aureus ATCC 27660, MIC previously obtained (target MIC), printed in parentheses, read-out: MIC for Control Bacteria within the parentheses) of 0.098 µg/mL (≈ 0.105 µM) and an MIC (Staphylococcus aureus, ATCC27660, S. aureus ATCC27660, read-out: MIC) of 0.098 µg/mL (≈ 0.105 µM). It also gave an MIC (Staphylococcus aureus, ATCC27660, control for MIC test HI (Control Bacteria Set #2), read-out: MIC of control bacteria on day of MIC testing) of 0.5 µg/mL, an MIC (Staphylococcus aureus, ATCC27660, control for MIC test MS (Control Bacteria Set #2), read-out: MIC of control bacteria on day of MIC testing) of 0.5 µg/mL and an MIC (Staphylococcus aureus, ATCC27660, control for MIC test PA, read-out: MIC of control bacteria on day of MIC testing) of 0.5 µg/mL. For the same compound, the MIC (Staphylococcus aureus, ATCC27660, control for MIC test SA-FQR, read-out: MIC of control bacteria on day of MIC testing) was 1 µg/mL, the MIC (Staphylococcus aureus, ATCC27660, control for MIC test SA-FQS, read-out: MIC of control bacteria on day of MIC testing) was 2 µg/mL and the MIC (Staphylococcus aureus, ATCC27660, control for MIC test SE-FQR, read-out: MIC of control bacteria on day of MIC testing) was 0.25 µg/mL. The MIC (Staphylococcus aureus, ATCC27660, control for MIC test SE-FQS, read-out: MIC of control bacteria on day of MIC testing) was 0.25 µg/mL, the MIC (Staphylococcus aureus, ATCC27660, control for MIC test SM, read-out: MIC of control bacteria on day of MIC testing) was 0.25 µg/mL and the MIC (Staphylococcus aureus, ATCC27660, control for MIC test SP, read-out: MIC of control bacteria on day of MIC testing) was 0.25 µg/mL. The MIC (Staphylococcus aureus, ATCC27660, control for MIC test SV, read-out: MIC of control bacteria on day of MIC testing) was 1 µg/mL and the MIC (Staphylococcus aureus, ATCC27660, reference MIC printed in parentheses beside the day's control value, read-out: MIC for Control Bacteria (within the parentheses)) was 0.098 µg/mL (≈ 0.105 µM).
